Experimental data as given in EP2423181A1, “Multitarget substituted biphenyl diol derivatives” (PROUS INSTITUTE FOR BIOMEDICAL RESEARCH S.A., priority 2010, dated 2012).
Where a name gives a salt, the structure may show the parent alone.

Assays:
[1] = target: T1, SERT (Homo sapiens, UniProt P31645); assay: Serotonin transporter binding ([3H]imipramine)
T1 construct: expressed in transfected cells; host or cells: CHO cells
Protocol: (§1) Serotonin transporter (SERT) inhibitors increase extracellular concentrations of serotonin (5-HT) and amplify signals sent by serotonin neurons. Agents that block SERT have been studied for the treatment of several diseases including depression and anxiety. Inhibitors of monoamine transporters have been tested for NET (Pacholczyk, T. et al. Nature, 1991, 350, 350-354) and SERT (Tatsumi, M. et al. Eur J Pharmacol, 1999, 368, 277-283). Norepinephrine transport was assessed in human recombinant CHO cells using [^3H]nisoxetine as a ligand at 1 nM after 60 min of incubation at 22°C, and a scintillation method as a method of detection. Serotonine transport was assessed in human recombinant CHO cells using [^3H]imipramine as a ligand at 2 nM after 60 min of incubation at 22°C, and a scintillation counting as a method of detection.

[2] = target: T2, NET (Homo sapiens, UniProt P23975); assay: Norepinephrine transporter binding ([3H]nisoxetine)
T2 construct: expressed in transfected cells; host or cells: CHO cells
T2 sequence (P23975 whole entry): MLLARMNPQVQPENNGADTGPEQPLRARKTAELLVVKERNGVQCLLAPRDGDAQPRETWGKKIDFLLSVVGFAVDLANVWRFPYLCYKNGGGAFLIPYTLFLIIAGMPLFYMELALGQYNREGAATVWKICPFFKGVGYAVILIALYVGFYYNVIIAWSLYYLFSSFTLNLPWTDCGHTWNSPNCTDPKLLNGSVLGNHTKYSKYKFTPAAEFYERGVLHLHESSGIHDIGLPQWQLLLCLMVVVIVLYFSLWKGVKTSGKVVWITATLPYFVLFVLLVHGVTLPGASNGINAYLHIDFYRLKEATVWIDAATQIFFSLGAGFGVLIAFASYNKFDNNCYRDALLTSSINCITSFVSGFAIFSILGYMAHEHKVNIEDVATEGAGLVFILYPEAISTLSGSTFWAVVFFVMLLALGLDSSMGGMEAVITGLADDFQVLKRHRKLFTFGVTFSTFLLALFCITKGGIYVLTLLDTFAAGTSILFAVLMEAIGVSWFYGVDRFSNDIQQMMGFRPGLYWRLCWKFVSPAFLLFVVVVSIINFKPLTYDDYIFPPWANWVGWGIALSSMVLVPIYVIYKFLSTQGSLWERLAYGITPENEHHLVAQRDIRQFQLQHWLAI
Protocol: as §1

[3] = target: T3, 5-HT2A receptor (Homo sapiens, UniProt P28223); assay: 5-HT2A receptor binding ([3H]ketanserin); conditions: 5-HT2A binding
T3 construct: expressed in transfected cells; host or cells: HEK-293 cells
T3 sequence (P28223 whole entry): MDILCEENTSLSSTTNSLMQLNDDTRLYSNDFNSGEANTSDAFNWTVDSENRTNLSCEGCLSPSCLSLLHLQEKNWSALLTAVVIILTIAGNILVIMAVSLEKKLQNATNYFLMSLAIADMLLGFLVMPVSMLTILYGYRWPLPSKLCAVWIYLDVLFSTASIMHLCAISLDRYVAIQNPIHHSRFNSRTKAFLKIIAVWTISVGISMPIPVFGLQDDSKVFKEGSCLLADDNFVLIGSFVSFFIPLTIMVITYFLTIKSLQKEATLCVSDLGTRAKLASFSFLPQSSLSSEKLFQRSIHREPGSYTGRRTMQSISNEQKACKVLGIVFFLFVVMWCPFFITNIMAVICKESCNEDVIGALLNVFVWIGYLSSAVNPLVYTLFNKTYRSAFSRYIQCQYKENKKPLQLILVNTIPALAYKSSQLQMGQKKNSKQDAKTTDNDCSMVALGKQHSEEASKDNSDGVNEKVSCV
Protocol: The 5-HT2A receptor belongs to the G-protein-coupled receptor (GPCR) target class linked to anxiety and depression. Using human recombinant HEK-293 cells, the binding of compounds of formula (I) to this receptor was determined. The ligand used was [^3H]ketanserin at 0.5 nM and the quantification of the activity was assessed by scintillation counting after 60 min at 22°C (Bonhaus, et al. Br J Pharmacol, 1995, 115, 622-628). Table 16. Inhibition of 5-HT2A binding

[4] = tested on: NE Uptake; assay: Norepinephrine uptake inhibition; format: biochemical
[5] = tested on: 5-HT Uptake; assay: Serotonin uptake inhibition in brain synaptosomes; format: biochemical, rat
Protocol: Inhibition of serotonin uptake has been tested in rat brain synaptosomes using [^3H]serotonin (0.2 µCi/ml) after 15 min of incubation at 37°C and measuring the incorporation of [^3H]serotonin into synaptosomes by scintillation counting (Perovic, S. and Muller, W.E.G. Arzneim-Forsch. Drug Res., 1995, 45, 1145-1148).

[6] = tested on: mice; conditions: i.p. in mice, comparative antineoplastic agents; cited from earlier work
[7] = target: T4, Gonadotrophin-releasing hormone receptors (GnRH, LH-RH)R (Homo sapiens, UniProt P30968); assay: GnRH radioligand binding assay; conditions: GnRH radioligand binding, 10 µM; read-out: % Inhibition at 10 µM
T4 construct: expressed in transfected cells; host or cells: Chem-1 cells
T4 sequence (P30968 1-328): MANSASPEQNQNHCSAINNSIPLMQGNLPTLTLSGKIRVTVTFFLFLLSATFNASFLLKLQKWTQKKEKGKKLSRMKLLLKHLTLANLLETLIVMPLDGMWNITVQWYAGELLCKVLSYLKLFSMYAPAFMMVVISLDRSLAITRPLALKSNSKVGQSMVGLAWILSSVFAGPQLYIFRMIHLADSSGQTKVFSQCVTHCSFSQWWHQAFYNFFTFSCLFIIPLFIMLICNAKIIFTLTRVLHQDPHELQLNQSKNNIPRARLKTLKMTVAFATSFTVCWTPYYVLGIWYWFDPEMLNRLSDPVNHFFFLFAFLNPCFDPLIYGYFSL
From the text: Gonadotrophin-releasing hormone receptors (GnRH, LH-RH)R are a family of G protein-coupled receptors for GnRH, which promotes the secretion of luteinizing hormone (LH) and follicle-stimulating hormone (FSH). The activation of this receptor promotes, through estrogen receptors (ER) located in the cytosol, an increase in gene transcription and activation of tumor suppressor genes, DNA repair, cell division and cell proliferation. GnRH agonists are useful in breast, prostate and ovarian cancer, endometriosis, melanoma, rheumatoid arthritis and Alzheimer's disease. Table 17 presents the results from radioligand binding studies for GnRH for selected compounds using human recombinant Chem-1 cells (Halmos G, Schally AV, Pinski J, Vadillo-Buenfill M, Groot K. Down regulation of pituitary receptors for luteinizing hormone-releasing hormone (LH-RH) in rats by LH-RH antagonist Cetrorelix. Prco Natl Acad Sci USA 1996;93(6):2398-2402). The specific and non specific ligands used were [^125l] [D-Trp^6]-LH-RH (0.05 nM) and [D-Trp^6]-LH-RH ([…]) and after 60 min of incubation at 25°C in a 50 mM HEPES, pH 7.5, 5 mM MgCl2, 1 mM CaCl2, and 0.2% BSA the activity was measured by radioligand binding. Table 17. GnRH radioligand binding assay

[8] = Maximum Tolerated Dose after acute administration; conditions: mouse, in vivo, ip, mice
Protocol: The Maximum Tolerated Dose (MTD) in mice was determined for selected compounds. The protocol of the studies was in accordance with the standard guidelines for drug development: • (htp://dtp.nci.nih.gov/branches/btb/acute tox.html). Table 10. Maximum Tolerated Doses in mice after acute i.p. administration

[9] = tested on: tumor melanoma B16-FO; assay: Tumor cell proliferation assay (alamarBlue); format: cell-based, murine; conditions: Mus musculus; tumor melanoma B16-FO; read-out: IC50
Protocol: (§2) Changes in cell proliferation were detected based on the ability of viable cells to cause alamarBlue® to change its oxidized (non-fluorescent, blue) to a reduced (fluorescent, red) form. The alamarBlue® reaction allows the quantification of cell proliferation and examination of the metabolic activity of viable cells. Test substances were examined for activity on the proliferation of human or murine tumor cell lines at assay concentrations from 0.01 to 100 µM.

[10] = target: T5, Src (Homo sapiens, UniProt P12931); assay: Src protein tyrosine kinase inhibition (ELISA of Poly[Glu:Tyr-P]); format: biochemical; conditions: Src, at 10 µM; read-out: % Inhibition
T5 construct: host or cells: Sf9 insect cells
T5 sequence (P12931 whole entry): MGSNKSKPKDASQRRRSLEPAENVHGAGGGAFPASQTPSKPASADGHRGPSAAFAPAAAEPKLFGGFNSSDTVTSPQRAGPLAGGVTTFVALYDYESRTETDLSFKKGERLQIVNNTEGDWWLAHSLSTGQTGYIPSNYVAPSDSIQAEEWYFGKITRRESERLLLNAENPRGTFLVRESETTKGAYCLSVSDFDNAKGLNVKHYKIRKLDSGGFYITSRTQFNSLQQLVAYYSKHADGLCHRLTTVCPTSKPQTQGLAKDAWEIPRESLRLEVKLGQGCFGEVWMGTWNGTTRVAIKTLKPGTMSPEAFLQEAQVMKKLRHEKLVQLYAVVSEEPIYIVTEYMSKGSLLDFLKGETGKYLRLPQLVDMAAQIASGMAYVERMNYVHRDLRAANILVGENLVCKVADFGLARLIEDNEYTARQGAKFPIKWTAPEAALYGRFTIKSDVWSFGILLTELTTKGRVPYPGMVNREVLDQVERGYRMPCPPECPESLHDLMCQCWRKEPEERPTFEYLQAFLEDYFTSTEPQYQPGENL
Protocol: Src protein tyrosine kinase activity was assessed in human recombinant insect Sf9 cells using as a substrate Poly(Glu:Tyr) at 10 µg/mL with preincubation and incubation times of 15 and 5 min, respectively, at 22°C in 50 mM HEPES, pH 7.4, 1 mM DTT, 20 mM MgCl2 and 0.2 mM Na3VO4. An ELISA quantitation method of Poly[Glu:Tyr-P] was employed (Farley, K et al. Anal Biochem, 1992, 203, 151-157). Table 4. Inhibition of Src at 10 µM

[11] = tested on: mice; assay: Hot plate test (analgesic activity); format: in vivo; conditions: 10 and 30 mg/kg i.p.
Protocol: The hot plate test was used as an animal model of thermally-induced pain. The inhibitory activity measured on the time licking and biting induced by temperature (30 sec max at 55°C) indicates analgesic effect. […] Table 13. Analgesic activity of example 1 in the hot plate test

[12] = tested on: tumor breast MDA-MB-231; assay: Tumor cell proliferation assay (alamarBlue); format: cell-based; conditions: Homo sapiens; tumor breast MDA-MB-231; read-out: IC50
Protocol: as §2

[13] = tested on: tumor liver Hep 3B; assay: Tumor cell proliferation assay (alamarBlue); format: cell-based; conditions: Homo sapiens, Hep3B; tumor liver Hep 3B; read-out: IC50
Protocol: as §2

[14] = tested on: tumor ovary OVCAR-3; assay: Tumor cell proliferation assay (alamarBlue); format: cell-based; conditions: Homo sapiens; tumor ovary OVCAR-3; read-out: IC50
Protocol: as §2

[15] = tested on: tumor breast T-47D; assay: Tumor cell proliferation assay (alamarBlue); format: cell-based; conditions: Homo sapiens, T47D; tumor breast T-47D; read-out: IC50
Protocol: as §2

[16] = tested on: tumor leukaemia K562; assay: Tumor cell proliferation assay (alamarBlue); format: cell-based; conditions: Homo sapiens; tumor leukaemia K562; read-out: IC50
Protocol: as §2

[17] = tested on: tumor colon HCT-116; assay: Tumor cell proliferation assay (alamarBlue); format: cell-based; conditions: Homo sapiens; tumor colon HCT-116; read-out: IC50
Protocol: as §2

[18] = tested on: tumor prostate LNCaP-FGC; assay: Tumor cell proliferation assay (alamarBlue); format: cell-based; conditions: Homo sapiens; tumor prostate LNCaP-FGC; read-out: IC50
Protocol: as §2

[19] = tested on: tumor brain U-87 MG; assay: Tumor cell proliferation assay (alamarBlue); format: cell-based; conditions: Homo sapiens; tumor brain U-87 MG; read-out: IC50
Protocol: as §2

[20] = tested on: tumor lung A549; assay: Tumor cell proliferation assay (alamarBlue); format: cell-based; conditions: Homo sapiens; tumor lung A549; read-out: IC50
Protocol: as §2

[21] = tested on: tumor breast MCF-7; assay: Tumor cell proliferation assay (alamarBlue); format: cell-based; conditions: Homo sapiens, MCF7; tumor breast MCF-7; read-out: IC50
Protocol: as §2

[22] = tested on: tumor liver HepG2; assay: Tumor cell proliferation assay (alamarBlue); format: cell-based; conditions: Homo sapiens; tumor liver HepG2; read-out: IC50
Protocol: as §2

[23] = tested on: mice; assay: Formalin test (antinociceptive activity); format: in vivo
Protocol: The chemical irritant formalin test is used as a chronic pain model in animals. The s.c. administration of formalin to the paw of a mouse produces a biphasic nociceptive behavioral response, an early response (0-5 min after injection) and a late response (20-30 min after injection) (Hunskaar, S., Fasmer, O.B., Hole, K. Formalin test in mice, a useful technique for evaluating mild analgesics. J Neurosci Methods, 1985 ;14(1):69-76).
Aspirine and paracetamol are included as external active references in early and late response. Table 12. Early and late response inhibition in the formalin test.

T1 sequence (P31645 whole entry): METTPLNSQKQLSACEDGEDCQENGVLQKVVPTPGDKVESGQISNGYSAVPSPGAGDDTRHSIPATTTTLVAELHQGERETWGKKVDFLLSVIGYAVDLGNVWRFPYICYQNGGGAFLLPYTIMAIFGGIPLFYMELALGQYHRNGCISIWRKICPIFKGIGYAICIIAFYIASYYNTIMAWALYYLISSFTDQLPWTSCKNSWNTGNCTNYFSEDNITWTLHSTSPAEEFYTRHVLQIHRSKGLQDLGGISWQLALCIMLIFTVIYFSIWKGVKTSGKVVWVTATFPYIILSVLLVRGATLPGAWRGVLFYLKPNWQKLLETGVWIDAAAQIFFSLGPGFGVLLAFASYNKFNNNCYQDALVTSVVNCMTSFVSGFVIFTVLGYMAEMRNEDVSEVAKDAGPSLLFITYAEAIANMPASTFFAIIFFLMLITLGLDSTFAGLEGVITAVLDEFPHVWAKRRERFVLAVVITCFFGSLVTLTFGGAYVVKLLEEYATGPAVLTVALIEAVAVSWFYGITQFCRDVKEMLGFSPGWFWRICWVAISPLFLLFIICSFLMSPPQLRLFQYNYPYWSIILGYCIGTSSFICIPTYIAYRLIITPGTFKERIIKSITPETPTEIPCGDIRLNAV

Compound: C=CCc1ccc(OCC)c(-c2cc(CC=C)ccc2OC(CCNC)c2ccccc2)c1 (stereo not drawn) [Example 3, 5,5'-Diallyl-2-ethoxy-2'-[3-(methylamino)-1-phenylpropoxylbiphenyl hydrochloride]
- inhibition at 5 µM [1]: 73%
- inhibition at 5 µM [2]: 87%
- inhibition at 5 µM [3]: 86%
- % Inhibition (5.0 µM) NE Uptake [4]: 85%
- % Inhibition (5.0 µM) 5-HT Uptake [5]: 52%

Compound: CC(=O)O[C@H]1C(=O)[C@@]2(C)[C@H]([C@H](OC(=O)c3ccccc3)[C@]3(O)C[C@H](OC(=O)[C@H](O)[C@@H](NC(=O)c4ccccc4)c4ccccc4)C(C)=C1C3(C)C)[C@]1(OC(C)=O)CO[C@@H]1C[C@@H]2O [placlitaxel]
- MTD [6]: 20 to 50 mg/kg

Compound: N.N.[Cl][Pt][Cl] [cisplatin]
- MTD [6]: 4 mg/kg

Compound: C=CCc1ccc(OC)c(-c2cc(CC=C)ccc2OC(CCNC)c2ccccc2)c1.Cl (stereo not drawn) [Example 2, 5,5'-Diallyl-2-methoxy-2'-[3-(methylamino)-1-phenylpropoxy]biphenyl hydrochloride]
- inhibition at 10 µM [7]: 33%
- MTD [8]: 50 mg/kg
- IC50 [9]: 2300 nM
- inhibition at 10 µM [10]: 55%
- antinociceptive activity in the hot plate test [11]: Dose-dependent antinociceptive activity
- IC50 [12]: 2100 nM
- IC50 [13]: 3200 nM
- IC50 [14]: 2300 nM
- IC50 [15]: 12000 nM
- IC50 [16]: 4200 nM
- IC50 [17]: 2100 nM
- IC50 [18]: 1800 nM
- IC50 [19]: 2200 nM
- IC50 [20]: 1300 nM
- IC50 [21]: 2600 nM
- IC50 [22]: 3600 nM
- antinociceptive activity in the formalin test ([23]; 30 mg/kg i.p, early and late phases, potency similar to morphine 10 mg/kg i.p.): to a lesser extent
- antinociceptive activity in the formalin model ([23]; 10 and 30 mg/kg i.p, late phase): dose-dependent antinociceptive activity
- Early Response ([23]; formalin test, dose 30 mg/Kg i.p., early response 0-5 min): inactive
- Late Response ([23]; formalin test, dose 30 mg/Kg i.p., late response 20-30 min): active
